Laboratory results taken from patent US10369131B2, “Ultrapure tetrahydrocannabinol-11-oic acids” (Corbus Pharmaceuticals, Inc., priority 2013, dated 2019).

Tests used:
hCB2 receptor [1] = target: T1, hCB2 receptor (Homo sapiens, UniProt P34972); experiment: biochemical
Description: When the CB1 or CB2 receptor is activated by an agonist, the affinity of the G protein alpha subunit increases with respect to GTP vs. GDP. As a consequence, GDP is displaced from the G protein and GTP or GTPγS binds. If a radioactive label, such as [^35S], is attached to the GTPγS molecule, then the formation of the G protein/[^35S]GTPγS complex can be directly measured using liquid scintillation spectrophotometry.
The CB1 and CB2 receptor assays involve membrane preparations purchased from Perkin Elmer (Waltham, Mass.) isolated from a HEK-293 expression system. G-protein coupled signal transduction (GTP-γ-[35S]) assays of test compounds were conducted in an incubation mixture consisting of a test compound (250 nM-1 mM), GDP (20 μM), GTP-γ-[35S] (100 pM), and the hCB1 and hCB2 membrane preparations (0.4 pM) in a total volume of 0.4 mL of assay buffer (50 mM TRIS-HCl, pH 7.4, 1 mM EDTA, 100 mM NaCl, 5 mM MgCl2, 0.5% (w/v) BSA). Nonspecific binding was determined in the presence of 100 μM unlabeled GTP-γ-S, and basal binding was determined in the absence of drug. Duplicate samples were incubated for 1 h at 30° C., and the bound complex was filtered from the reaction mixture as described previously and counted in a liquid scintillation counter. Specific binding was calculated by subtracting nonspecific binding from total binding and dividing by the total basal binding minus nonspecific binding. Data were plotted and analyzed with GraphPad Prism (GraphPad Software, Inc., San Diego, Calif.).

female CD-1 mice [2] = experiment: Ring immobility (catalepsy) test
Protocol: The cataleptic response was measured using the ring test described by Pertwee (Pertwee R G, The Ring Test. A Quantitative Method of Assessing the Cataleptic Effect of Cannabis in Mice, Br. J. Pharmacol. 46:753-763 (1972)). Mice were placed on a horizontal wire ring 5.5 cm in diameter attached to a 16 cm vertical rod. The hind paws and fore paws were placed at opposite sides of the ring. The ambient temperature was maintained at 30° C. and the environment was free of auditory stimuli and bright lights. The response was calculated as the fraction of time the mouse was immobile over a five (5) minute test period.
A dose response was conducted for ultrapure AJA to oral doses of 0.05 to 56 mg/kg.
Compounds were administered at a volume of […] via oral gavage.
Female CD-1 mice (20-25 g), obtained from Charles River (Raleigh, N.C.), were used for assessment in hot plate nociception, rectal temperature, and ring immobility assays. Separate mice were used for testing each dose of each compound in this battery of procedures. The mice had free access to food and water when in their home cages. All animals were kept in a temperature-controlled (20-22° C.) environment with a 12-hour light-dark cycle (lights on at 7 a.m.).
Each mouse was tested in a battery of three tests, in which cannabinoid CB1 agonists produce in vivo effects in mice (Martin et al., 1991): antinociception (hot plate assay), decreased rectal temperature and ring immobility. Prior to administration of the test compound, rectal temperature and baseline latency in the hot plate test were measured in the mice. The latter procedure involved placing the mouse on a heated surface (mouse cold/hot plate analgesia apparatus; Stoelting, Wood Dale, Ill.) at a setting of 55° C. Time until the mouse lifts or licks a paw was measured, whereupon the mouse was removed from the apparatus. […] After measurement of baseline temperature and hot plate latency, mice were administered vehicle or drug via oral gavage. […] Subsequently, the mice were placed on a 5.5 cm ring attached at a height of 16 cm to a ring stand, and the amount of time the animals remained motionless during a 5 min period was recorded. In addition, the number of times the mouse fell or jumped off the ring was recorded. If the mouse fell off the ring more than 5 times, the test was terminated.
Rectal temperature values were expressed as the difference between control temperature (before injection) and temperature following drug administration (Δ° C.). Antinociception was expressed as the percent maximum possible effect (MPE) using a 30-s maximum test latency as follows: [(test−control)/(30−control)]×100. During assessment for catalepsy, the total amount of time (in seconds) that the mouse remained motionless on the ring apparatus (except for breathing and whisker movement) was measured and was used as an indication of catalepsy-like behavior. This value was divided by 300 s and multiplied by 100 to obtain a percent immobility. If the mouse fell off the ring more than 5 times, the test was terminated and ring immobility data for the mouse were not included in analysis. Separate between-subjects ANOVAs were used to analyze each measure. Significant differences from control (vehicle) were further analyzed with Tukey post hoc tests (α=0.05) as necessary.

hCB2 receptor [3] = target: T1, hCB2 receptor; experiment: CB receptor radioligand binding assay, human CB2; parameters: expressed in transfected cells; host or cells: HEK-293T
Protocol: Membrane preparation—HEK-293T cells were cultured according to ATCC (Manassas, Va.) guidelines and transfected with human CB1 cDNA (Genbank X54937) or CB2 cDNA (Genbank X74328), operably linked to the SV40 promoter, using Polyfect (Qiagen, Valencia, Calif.) or Fugene (Roche, Nutley, N.J.) according to manufacturer's instructions. 48 h after transfection, cells were harvested in ice cold membrane buffer (20 mM HEPES, 6 mM MgCl2, 1 mM EDTA, pH 7.2) using a cell scraper. Cells were transferred to a nitrogen cavitation chamber and a pressure of […] was applied for 30 min. The pressure was released and the cell debris was collected and centrifuged at 1000 g at 4° C. for 10 min. The supernatant was collected and the spin was repeated until the supernatant was free of precipitate. […] The membrane concentration was determined using a BioRad (Hercules, Calif.) protein assay dye reagent according to manufacturer's instructions. […]
Membranes were incubated for 2 hr at room temperature, then filtered onto a presoaked (with 0.1% polyethylenimine for 1 to 2 hr) 96 well GF/B filterplate (Packard Bioscience, Shelton, Conn.) and washed with […] ice cold wash buffer (25 mM HEPES, 1 mM CaCl2, 5 mM MgCl2, 0.25M NaCl) using a Filtermate 196 Harvester (Packard Instruments, Downers Grove, Ill.). […] Plates were counted on a Topcount NXT (Packard, Shelton, Conn.). […]

female CD-1 mice [4] = experiment: Mouse hot plate test for antinociception; format: in vivo
HL-60 cells = experiment: PGJ synthesis in HL-60 cells (ELISA); format: cell-based; conditions: TNFα 10 nM, with CB2 or CB1 antagonist, N=4
Protocol: The CB2 antagonist SR144528 reduced ultrapure AJA-induced PGJ synthesis in HL60 immune system cells at low concentrations (squares). […] DMSO control (open circles). Treatments of cells was carried out in 48 well plates with 20,000 cells/500 μl RPMI/FCS media/well. Cells were incubated for 20 hrs at 37° C. and 5% CO2. Media was changed to 500 μl of serum free RPMI and TNFα (10 nM) added. […] N=4.

[5] = dose response 0.05 to 56 mg/kg oral

T1 sequence (P34972 whole entry): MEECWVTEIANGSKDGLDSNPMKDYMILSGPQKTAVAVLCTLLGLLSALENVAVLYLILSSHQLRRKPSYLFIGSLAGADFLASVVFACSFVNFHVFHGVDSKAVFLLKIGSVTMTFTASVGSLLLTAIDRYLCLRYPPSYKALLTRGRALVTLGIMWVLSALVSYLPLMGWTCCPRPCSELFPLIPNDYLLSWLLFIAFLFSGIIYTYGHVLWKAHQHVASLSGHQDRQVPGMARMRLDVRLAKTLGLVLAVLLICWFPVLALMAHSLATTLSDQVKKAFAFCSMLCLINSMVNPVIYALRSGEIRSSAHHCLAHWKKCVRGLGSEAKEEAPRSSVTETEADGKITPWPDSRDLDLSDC

SMILES: CCCCCCC(C)(C)c1cc(O)c2c(c1)OC(C)(C)[C@@H]1CC=C(C(=O)O)C[C@@H]21 [JBT-101, (6aR,10aR)-3-(1′,1′-dimethylheptyl)-Δ8-tetrahydro-cannabinol-9-carboxylic acid]
- EC50 (hCB2 receptor [1]; hCB2 EC50 Mean (±SEM), GTP-γ-35S turnover, mean of 4 repetitions): 1020 ± 92 nM
- EC50 (hCB2 receptor [1]; hCB2 EC50 Rep 1, GTP-γ-35S turnover, replicate 1): 930 nM
- EC50 (hCB2 receptor [1]; hCB2 EC50 Rep 2, GTP-γ-35S turnover, replicate 2): 815 nM
- EC50 (hCB2 receptor [1]; hCB2 EC50 Rep 3, GTP-γ-35S turnover, replicate 3): 1230 nM
- EC50 (hCB2 receptor [1]; hCB2 EC50 Rep 4, GTP-γ-35S turnover, replicate 4): 1100 nM
- doses required to see catalepsy compared with AJA (3a) from U.S. Pat. No. 5,338,753 (female CD-1 mice [2]; [5]): required much higher doses
- percent ring immobility in the catalepsy test (female CD-1 mice [2]; lower oral doses, up to 10 mg/kg): did not affect this measure
- percent ring immobility in the catalepsy test (female CD-1 mice [2]; oral 30 and 56 mg/kg, vs vehicle, p<0.05): significantly increased percent ring immobility
- doses at which active in the ring test (female CD-1 mice [2]; oral in oil, FIG. 14): ≥ 30 mg/kg
- Ki (hCB2 receptor [3]): 51 ± 11 nM
- doses required to see analgesia compared with AJA from U.S. Pat. No. 5,338,753 (female CD-1 mice [4]; [5]): required much higher doses
- antinociception in the hot plate test (% MPE) (female CD-1 mice [4]; oral 0.05-56 mg/kg, 90 min after administration, vs vehicle): None of the doses tested produced significant antinociception
- doses at which active in the mouse hot plate assay (female CD-1 mice [4]; oral, FIG. 15): ≥ 30 mg/kg
- stimulation of PGJ in HL-60 cells (HL-60 cells): CB2 specificity
